Source: ChEMBL document CHEMBL5050834, “Cyclic trex1 inhibitors” (2021)

Assay: Inhibition of human TREX1 exonuclease activity using labeled DNA oligonucleotide as substrate incubated for 30 mins and measured after 45 mins by fluorescence assay

SMILES	IC50
N[C@@H]1C[C@H]2C(=O)N([C@H](CCC(=O)O)C(=O)NCc3ccc(Cl)c(Cl)c3)CCC(CCOc3ccccc3)N2C1 (stereo not given in full)	in the range around 1000 nM
COc1ccc(OCC2CCN([C@H](CCC(=O)O)C(=O)NCc3ccc(Cl)c(Cl)c3)C(=O)[C@@H]3C[C@@H](N)CN23)cc1 (stereo not given in full)	in the range around 1000 nM
N#CC[C@H](C(=O)N1CCc2c(ccc(Cl)c2Cl)C1)N1CCC(CCc2ccccc2)N2C[C@H](N)C[C@H]2C1=O (stereo not given in full)	in the range around 1000 nM
CC(C)C[C@H](C(=O)NCc1ccc(Cl)c(Cl)c1)N1CCC(CS(=O)(=O)c2ccccc2)N2C[C@H](N)C[C@H]2C1=O (stereo not given in full)	in the range around 1000 nM
N#CC[C@H](C(=O)N1CCc2cc(Cl)c(Cl)cc2C1)N1CCC(CCc2ccccc2)N2C[C@H](N)C[C@H]2C1=O (stereo not given in full)	in the range around 1000 nM
COc1c(CNC(=O)[C@@H](CCC(N)=O)N2CCC(CCc3ccccc3)N3C[C@H](N)C[C@H]3C2=O)ccc(Cl)c1Cl (stereo not given in full)	< 1000 nM
N[C@@H]1C[C@H]2C(=O)N([C@H]3CCCN(Cc4ccc(Cl)c(Cl)c4)C3=O)CCC(CCc3ccccc3)N2C1 (stereo not given in full)	< 1000 nM
NC(=O)CC[C@H](C(=O)NCc1ccc(Cl)c(Cl)c1F)N1CCC(CCc2ccccc2)N2C[C@H](N)C[C@H]2C1=O (stereo not given in full)	< 1000 nM
CC(C)C[C@H](C(=O)NCc1ccc(Cl)c(Cl)c1)N1CCC(C[S+]([O-])c2ccccc2)N2C[C@H](N)C[C@H]2C1=O (stereo not given in full)	< 1000 nM
CCOC(=O)N[C@@H]1C[C@H]2C(=O)N([C@H](CCC(=O)O)C(=O)NCc3ccc(Cl)c(Cl)c3)CCC(CCc3ccccc3)N2C1 (stereo not given in full)	in the range around 10000 nM
COC(=O)CC[C@H](C(=O)NCc1ccc(Cl)c(Cl)c1)N1CCC(CCc2ccccc2)N2C[C@H](N)C[C@H]2C1=O (stereo not given in full)	< 1000 nM
COc1ccc(CNC(=O)[C@@H](CC(C)C)N2CCC(CCc3ccccc3)N3C[C@H](N)C[C@H]3C2=O)cc1 (stereo not given in full)	< 1000 nM
N[C@@H]1C[C@H]2C(=O)N([C@H](CCC(=O)O)C(=O)NCc3cc(Cl)c(Cl)cn3)CCC(CCc3ccccc3)N2C1 (stereo not given in full)	< 1000 nM
N#CCC[C@H](C(=O)NCc1ccc(Cl)c(Cl)[n+]1[O-])N1CCC(CCc2ccccc2)N2C[C@H](N)C[C@H]2C1=O (stereo not given in full)	< 1000 nM
N#CCC[C@H](C(=O)NCc1ccc(Cl)c(Cl)c1)N1CCC(COc2ccc(F)cc2)N2C[C@H](N)C[C@H]2C1=O (stereo not given in full)	< 1000 nM
N[C@@H]1C[C@H]2C(=O)N([C@H]3CCCN(S(=O)(=O)c4ccc(Cl)c(Cl)c4)C3)CCC(CCc3ccccc3)N2C1 (stereo not given in full)	in the range around 1000 nM
N[C@@H]1C[C@H]2C(=O)N([C@H](CCC(=O)O)C(=O)NCc3ccc(Cl)c(Cl)c3)CCC(COc3ccccc3Cl)N2C1 (stereo not given in full)	< 1000 nM
CCOC(=O)CC[C@H](C(=O)NCc1ccc(Cl)c(Cl)c1)N1CCC(CCc2ccccc2)N2C[C@H](NC(=O)OCC)C[C@H]2C1=O (stereo not given in full)	in the range around 10000 nM
N[C@@H]1C[C@H]2C(=O)N([C@H](CCC(=O)NO)C(=O)NCc3ccc(Cl)c(Cl)c3)CCC(COc3cccc(F)c3)N2C1 (stereo not given in full)	< 1000 nM
N#CC[C@H](C(=O)NCc1ccc(Cl)c(C(F)(F)F)c1)N1CCC(CCc2ccccc2)N2C[C@H](N)C[C@H]2C1=O (stereo not given in full)	< 1000 nM
COc1c(CNC(=O)[C@@H](CCc2nnn[nH]2)N2CCC(CCc3ccccc3)N3C[C@H](N)C[C@H]3C2=O)ccc(Cl)c1Cl (stereo not given in full)	< 1000 nM
CC(C)C[C@H](C(=O)NCc1ccc(F)c(F)c1)N1CCC(CCc2ccccc2)N2C[C@H](N)C[C@H]2C1=O (stereo not given in full)	< 1000 nM
CCOC(=O)CC[C@H](C(=O)N1CCCC[C@H]1c1ccc(Cl)c(Cl)c1)N1CCC(CCc2ccccc2)N2C[C@H](N)C[C@H]2C1=O (stereo not given in full)	< 1000 nM

SMILES	IC50
N[C@@H]1C[C@H]2C(=O)N([C@H](CCC(=O)O)C(=O)NCc3cc(Cl)c(Cl)cc3F)CCC(CCc3ccccc3)N2C1 (stereo not given in full)	< 1000 nM
CCOC(=O)CC[C@H](C(=O)NCc1cc(Cl)c(Cl)cc1OC)N1CCC(CCc2ccccc2)N2C[C@H](N)C[C@H]2C1=O (stereo not given in full)	< 1000 nM
N[C@@H]1C[C@H]2C(=O)N([C@@H]3CCCN(C(=O)c4ccc(Cl)c(Cl)c4)C3)CCC(CCc3ccccc3)N2C1 (stereo not given in full)	in the range around 10000 nM
COc1cc(Cl)c(Cl)cc1CNC(=O)[C@@H](CCC(=O)O)N1CCC(CCc2ccccc2)N2C[C@H](N)C[C@H]2C1=O (stereo not given in full)	< 1000 nM
CS(=O)(=O)NCC[C@H](C(=O)NCc1ccc(Cl)c(Cl)c1)N1CCC(CCc2ccccc2)N2C[C@H](N)C[C@H]2C1=O (stereo not given in full)	< 1000 nM
Cc1ccc(CNC(=O)[C@@H](CC(C)C)N2CCC(CCc3ccccc3)N3C[C@H](N)C[C@H]3C2=O)cc1Cl (stereo not given in full)	< 1000 nM
N#CC[C@H](C(=O)NCc1ccc(Cl)c(Cl)n1)N1CCC(CCc2ccccc2)N2C[C@H](N)C[C@H]2C1=O (stereo not given in full)	< 1000 nM
CCOC(=O)CC[C@H](C(=O)NCc1ccc(Cl)c(Cl)c1)N1CCC(CCc2ccccc2)N2C[C@H](N)C[C@H]2C1=O (stereo not given in full)	< 1000 nM
NC(=O)CC[C@H](C(=O)N1Cc2cc(Cl)c(Cl)cc2C1)N1CCC(CCc2ccccc2)N2C[C@H](N)C[C@H]2C1=O (stereo not given in full)	in the range around 10000 nM
Cc1nnc(CC[C@H](C(=O)NCc2ccc(Cl)c(Cl)c2F)N2CCC(CCc3ccccc3)N3C[C@H](N)C[C@H]3C2=O)[nH]1 (stereo not given in full)	< 1000 nM
CNC(=O)CC[C@H](C(=O)NCc1ccc(Cl)c(Cl)c1)N1CCC(CCc2ccccc2)N2C[C@H](N)C[C@H]2C1=O (stereo not given in full)	< 1000 nM
N[C@@H]1C[C@H]2C(=O)N([C@H](CCC(=O)O)C(=O)NCc3ccc(Cl)c(Cl)c3)CCC(COc3ccc(Cl)cc3)N2C1 (stereo not given in full)	< 1000 nM
N#CC[C@H](C(=O)N1CCOC[C@H]1c1ccccc1)N1CCC(CCc2ccccc2)N2C[C@H](N)C[C@H]2C1=O (stereo not given in full)	in the range around 1000 nM
CCOc1c(CNC(=O)[C@@H](CCC(=O)O)N2CCC(CCc3ccccc3)N3C[C@H](N)C[C@H]3C2=O)ccc(Cl)c1Cl (stereo not given in full)	< 1000 nM
COC(=O)CC[C@H](C(=O)NS(=O)(=O)c1ccc(Cl)c(Cl)c1)N1CCC(CCc2ccccc2)N2C[C@H](N)C[C@H]2C1=O (stereo not given in full)	< 1000 nM
N[C@@H]1C[C@H]2C(=O)N([C@@H](CCC(=O)O)C(=O)NCc3ccc(Cl)c(Cl)c3)CCC(CCc3ccccc3)N2C1 (stereo not given in full)	< 1000 nM
CCN(CC)C(=O)COC(=O)CC[C@H](C(=O)NCc1ccc(Cl)c(Cl)c1)N1CCC(CCc2ccccc2)N2C[C@H](N)C[C@H]2C1=O (stereo not given in full)	< 1000 nM
N[C@@H]1C[C@H]2C(=O)N([C@@H]3CCCN(S(=O)(=O)c4ccccc4)C3)CCC(CCc3ccccc3)N2C1 (stereo not given in full)	in the range around 10000 nM
N[C@@H]1C[C@H]2C(=O)N([C@H](CCC(=O)NO)C(=O)NCc3ccc(Cl)c(Cl)c3)CCC(COc3ccc(F)cc3)N2C1 (stereo not given in full)	< 1000 nM
N[C@@H]1C[C@H]2C(=O)N([C@H](CCC(=O)O)C(=O)NCc3ccc(Cl)c(Cl)c3)CCC(COc3cccc(Cl)c3)N2C1 (stereo not given in full)	< 1000 nM
N[C@@H]1C[C@H]2C(=O)N([C@H](CS(=O)(=O)c3ccccc3O)C(=O)NCc3ccc(Cl)c(Cl)c3)CCC(CCc3ccccc3)N2C1 (stereo not given in full)	< 1000 nM
CCOC(=O)CC[C@H](C(=O)NCc1ccc(Cl)c(Cl)c1OC)N1CCC(CCc2ccccc2)N2C[C@H](N)C[C@H]2C1=O (stereo not given in full)	< 1000 nM

Now from value to compound:

IC50	SMILES
< 1000 nM	N[C@@H]1C[C@H]2C(=O)N([C@H](CCNS(=O)(=O)C3CC3)C(=O)NCc3ccc(Cl)c(Cl)c3)CCC(CCc3ccccc3)N2C1 (stereo not given in full)
< 1000 nM	CC(C)Oc1c(CNC(=O)[C@@H](CCc2nnn[nH]2)N2CCC(CCc3ccccc3)N3C[C@H](N)C[C@H]3C2=O)ccc(Cl)c1Cl (stereo not given in full)
< 1000 nM	N[C@@H]1C[C@H]2C(=O)N([C@H](CCC(=O)O)C(=O)N3CCC[C@H]3c3ccc(Cl)c(Cl)c3)CCC(CCc3ccccc3)N2C1 (stereo not given in full)
< 1000 nM	COc1ccc(CNC(=O)[C@@H](CC(C)C)N2CCC(CCc3ccccc3)N3C[C@H](N)C[C@H]3C2=O)cc1Cl (stereo not given in full)
< 1000 nM	CONC(=O)CC[C@H](C(=O)NCc1ccc(Cl)c(Cl)c1)N1CCC(CCc2ccccc2)N2C[C@H](N)C[C@H]2C1=O (stereo not given in full)
< 1000 nM	Cn1c(Cl)ccc(CNC(=O)[C@@H](CCC(=O)O)N2CCC(CCc3ccccc3)N3C[C@H](N)C[C@H]3C2=O)c1=O (stereo not given in full)
< 1000 nM	N[C@@H]1C[C@H]2C(=O)N([C@H](CCNS(=O)(=O)C(F)(F)F)C(=O)NCc3ccc(Cl)c(Cl)c3)CCC(CCc3ccccc3)N2C1 (stereo not given in full)
< 1000 nM	N[C@@H]1C[C@H]2C(=O)N([C@H](CCC(=O)O)C(=O)N3CCOC[C@H]3c3ccc(Cl)c(Cl)c3)CCC(CCc3ccccc3)N2C1 (stereo not given in full)
< 1000 nM	CC(C)Oc1c(CNC(=O)[C@@H](CCC(=O)O)N2CCC(CCc3ccccc3)N3C[C@H](N)C[C@H]3C2=O)ccc(Cl)c1Cl (stereo not given in full)
< 1000 nM	COC(=O)CC[C@H](C(=O)NCc1ccc(Cl)c(Cl)c1)N1CCC(COc2ccc(F)cc2)N2C[C@H](N)C[C@H]2C1=O (mixture of isomers)
< 1000 nM	N[C@@H]1C[C@H]2C(=O)N([C@H](CCC(=O)O)C(=O)NCc3ccc(Cl)c(Cl)n3)CCC(CCc3ccccc3)N2C1 (stereo not given in full)
< 1000 nM	CCOC(=O)CC[C@H](C(=O)N1CCOC[C@H]1c1ccc(Cl)c(Cl)c1)N1CCC(CCc2ccccc2)N2C[C@H](N)C[C@H]2C1=O (stereo not given in full)
< 1000 nM	CCOC(=O)CC[C@H](C(=O)NCc1cc(Cl)c(Cl)cn1)N1CCC(CCc2ccccc2)N2C[C@H](N)C[C@H]2C1=O (stereo not given in full)
< 1000 nM	CCOC(=O)CC[C@H](C(=O)NCc1ccc(Cl)c(Cl)n1)N1CCC(CCc2ccccc2)N2C[C@H](N)C[C@H]2C1=O (stereo not given in full)
< 1000 nM	N[C@@H]1C[C@H]2C(=O)N([C@H](CCC(=O)O)C(=O)NCc3ccc(Cl)c(Cl)c3)CCC(COc3cccc(F)c3)N2C1 (stereo not given in full)
< 1000 nM	CC(=O)NCC[C@H](C(=O)NCc1ccc(Cl)c(Cl)c1)N1CCC(CCc2ccccc2)N2C[C@H](N)C[C@H]2C1=O (stereo not given in full)
< 1000 nM	CC(C)C[C@H](CNS(=O)(=O)c1ccc(Cl)c(Cl)c1)N1CCC(CCc2ccccc2)N2C[C@H](N)C[C@H]2C1=O (stereo not given in full)
< 1000 nM	NC(=O)C[C@H](C(=O)NCc1ccc(Cl)c(Cl)n1)N1CCC(CCc2ccccc2)N2C[C@H](N)C[C@H]2C1=O (stereo not given in full)
< 1000 nM	CCOC(=O)CC[C@H](C(=O)NCc1cc(Cl)c(Cl)cc1F)N1CCC(CCc2ccccc2)N2C[C@H](N)C[C@H]2C1=O (stereo not given in full)
< 1000 nM	N#CC[C@H](C(=O)NCc1ccc(Cl)cn1)N1CCC(CCc2ccccc2)N2C[C@H](N)C[C@H]2C1=O (stereo not given in full)
